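Grown in 96-well plates, cells were treated for 48 hours with each compound at five concentrations. Insufficient inhibition: endpoint recorded as highest concentration tested. Here, GI50 denotes the concentration required for 50% inhibition of growth.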 Calls of active or inactive are those of the source. Cut-off read from the data, not from the text of the source: active = GI50 up to about 1.1 µM and inactive = higher.
Tests used:
Assay in all cases: DTP human tumour cell line panel, 48 h
HOP-92 = test system: HOP-92
K562 = test system: K562
Malme-3M = test system: Malme-3M
HOP-62 = test system: HOP-62
SF-295 = test system: SF-295
A498 = test system: A498
HCC 2998 = test system: HCC 2998
COLO 205 = test system: COLO 205
HCT-15 = test system: HCT-15
SK-MEL-5 = test system: SK-MEL-5
LOX IMVI = test system: LOX IMVI
EKVX = test system: EKVX
OVCAR-3 = test system: OVCAR-3
SNB-19 = test system: SNB-19
SNB-75 = test system: SNB-75
MCF7 = test system: MCF7
PC-3 = test system: PC-3
NCI/ADR-RES = test system: NCI/ADR-RES
MDA-N = test system: MDA-N

| SMILES | GI50 (HOP-92) | GI50 (K562) | GI50 (Malme-3M) | GI50 (HOP-62) | GI50 (SF-295) | GI50 (A498) | GI50 (HCC 2998) | GI50 (COLO 205) | GI50 (HCT-15) | GI50 (SK-MEL-5) | GI50 (LOX IMVI) | GI50 (EKVX) | GI50 (OVCAR-3) | GI50 (SNB-19) | GI50 (SNB-75) | GI50 (MCF7) | GI50 (PC-3) | GI50 (NCI/ADR-RES) | GI50 (MDA-N) |
| --- | --- | --- | --- | --- | --- | --- | --- | --- | --- | --- | --- | --- | --- | --- | --- | --- | --- | --- | --- |
| CC1(C)CC(=O)C(/C(=N/NC(=S)NN)C(=O)Nc2nc3ccc([N+](=O)[O-])cc3s2)C(=O)C1 | > 100 µM (inactive) | 62.1 µM (inactive) | > 100 µM (inactive) | > 100 µM (inactive) | > 100 µM (inactive) | > 100 µM (inactive) | > 100 µM (inactive) | > 100 µM (inactive) | > 100 µM | > 100 µM (inactive) | > 100 µM (inactive) | > 100 µM (inactive) | 67.9 µM (inactive) | > 100 µM (inactive) | > 100 µM (inactive) | – | – | – | – |
| CC(Oc1ccc(OCC2CCCCC2)cc1)C(N)=O (stereo not drawn) | – | > 100 µM (inactive) | > 100 µM (inactive) | – | > 100 µM (inactive) | – | – | – | > 100 µM | > 100 µM (inactive) | > 100 µM (inactive) | – | > 100 µM (inactive) | – | > 100 µM (inactive) | – | – | – | – |
| CC(C)CC(=O)CC(C)[C@]1(CCCOCc2ccccc2)C(=O)N2CCC3(C[C@@]24CCC[C@H]41)OCCO3 (stereo partly drawn) | > 10 µM (inactive) | > 10 µM (inactive) | – | > 10 µM (inactive) | > 10 µM (inactive) | > 10 µM (inactive) | > 10 µM (inactive) | > 10 µM (inactive) | > 10 µM | > 10 µM (inactive) | – | > 10 µM (inactive) | > 10 µM (inactive) | > 10 µM (inactive) | – | > 10 µM (inactive) | > 10 µM (inactive) | > 10 µM (inactive) | > 10 µM (inactive) |
| O=C(C/C(=N\NC(=O)C[n+]1ccccc1)C(=O)Nc1nc2ccc([N+](=O)[O-])cc2s1)CC(c1ccccc1)c1c(O)c2ccccc2oc1=O (stereo not drawn) | > 100 µM (inactive) | > 100 µM (inactive) | > 100 µM (inactive) | > 100 µM (inactive) | > 100 µM (inactive) | 46.3 µM (inactive) | > 100 µM (inactive) | > 100 µM (inactive) | – | > 100 µM (inactive) | – | > 100 µM (inactive) | > 100 µM (inactive) | > 100 µM (inactive) | – | – | – | – | – |
| O=C1CCC(=O)C12CCc1ccccc12 | > 100 µM (inactive) | > 10 µM (inactive) | > 100 µM (inactive) | > 100 µM (inactive) | > 100 µM (inactive) | – | > 100 µM (inactive) | > 100 µM (inactive) | > 100 µM | – | > 100 µM (inactive) | > 100 µM (inactive) | > 100 µM (inactive) | – | > 100 µM (inactive) | – | – | – | – |
| CCOC(=O)C(Cc1c(C=O)[nH]c2ccccc12)(NC(=O)c1ccccc1)C(=O)OCC | 11.7 µM (inactive) | 6.46 µM (inactive) | 17.7 µM (inactive) | – | 14.4 µM (inactive) | – | 12.2 µM (inactive) | 18.8 µM (inactive) | 6.7 µM | 11.4 µM (inactive) | – | 18.5 µM (inactive) | 13 µM (inactive) | 4.93 µM (inactive) | – | – | – | – | – |
| c1ccc(CSc2nc3ccccc3nc2-c2cccs2)cc1 | > 100 µM (inactive) | > 100 µM (inactive) | > 100 µM (inactive) | > 100 µM (inactive) | > 100 µM (inactive) | – | > 100 µM (inactive) | > 100 µM (inactive) | > 100 µM | > 100 µM (inactive) | – | > 100 µM (inactive) | > 100 µM (inactive) | > 100 µM (inactive) | > 100 µM (inactive) | – | – | – | – |
| Cc1ccccc1NC(=O)c1cc(-c2ccc([N+](=O)[O-])cc2)nc(S)n1 | > 100 µM (inactive) | > 100 µM (inactive) | > 100 µM (inactive) | > 100 µM (inactive) | > 100 µM (inactive) | – | > 100 µM (inactive) | > 100 µM (inactive) | > 100 µM | > 100 µM (inactive) | > 100 µM (inactive) | > 100 µM (inactive) | > 100 µM (inactive) | > 100 µM (inactive) | – | – | – | – | – |
| O=C(/C=C/c1ccc(O)c(O)c1)OC1C[C@@](O)(C(=O)O)C[C@@H](O)[C@H]1OC(=O)/C=C/c1ccc(O)c(O)c1 (stereo partly drawn) | > 100 µM (inactive) | > 100 µM (inactive) | > 100 µM (inactive) | > 100 µM (inactive) | > 100 µM (inactive) | > 100 µM (inactive) | > 100 µM (inactive) | > 100 µM (inactive) | > 100 µM | > 100 µM (inactive) | > 100 µM (inactive) | > 100 µM (inactive) | > 100 µM (inactive) | – | – | – | – | – | – |
| COC(=O)C1=Cc2cc3c(cc2[C@H](c2ccc4c(c2)OCO4)C1C(=O)OC)OCO3 (stereo partly drawn) | 27.4 µM (inactive) | 53.5 µM (inactive) | > 100 µM (inactive) | > 100 µM (inactive) | 38.5 µM (inactive) | 0.0745 µM (active) | > 100 µM (inactive) | 37.8 µM (inactive) | > 100 µM | 46.6 µM (inactive) | > 100 µM (inactive) | 46.8 µM (inactive) | 44.9 µM (inactive) | > 100 µM (inactive) | 44.8 µM (inactive) | – | – | – | – |

Reference: ChEMBL document CHEMBL1201862, “PubChem BioAssay data set” (2004)
